Assay: Colorimetric (Ehrlich's reagent) detection of kynurenine-like molecules; thermal forced degradation / storage
Format: physicochemical
Text: The quantitation of kynurenine-like species in […] was detected using a modified method by Meyer et al. (“Suitability of recombinant Escherichia coli and Pseudomonas putida strains for selective biotransformation of m-nitrotoluene by xylene monooxygenase”, Appl Environ Microbiol 71 (2005) 6624-6632). The method is based on the reaction of p-dimethylamino-benzaldehyde (DMAB or Ehrlich's reagent) with primary aromatic amines to form yellow imines in acidic conditions. Briefly, […], […] or kynurenine standard (0-800 μM in 0.9% saline) was combined in triplicate with 100 μL Ehrlich's reagent in a 96-well plate. The plate was read at 492 nm using a SpectraMax M2 plate reader (Molecular Devices, Sunnyvale, Calif., USA). […] […] was incubated at ambient temperature or 80° C. for 6 days. Aliquots were collected at 0, 1, 2, 3, or 6 days and analyzed in triplicate for kynurenine-like molecules using the colorimetric assay described in Section 2.3. Also, 4 mM N-acetyl tryptophan in 0.9% saline was incubated at 80° C. for 6 days.

- concentration of kynurenine-like molecules (4 mM in 0.9% saline heated at 80° C. for 6 days): 11.6 µM
- levels of kynurenine-like molecules (4 mM in 0.9% saline, t=0): undetectable
SMILES: CC(=O)N[C@@H](Cc1c[nH]c2ccccc12)C(=O)O [NAT, N-acetyl tryptophan]
